According to PubChem BioAssay AID2060491 (Molecular Pharmacology Branch, DTP, NCI, 2025):

System: 857933-349-R-J2-PDC complex spheroids, viability
Test: Anticancer human tumor 857933-349-R-J2-PDC patient-derived colon adenocarcinoma cell line growth inhibition [GQUAD]
Conditions: for IC50: curve of first compound; for viability, T/C: stronger effect = lower value
Outline: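 Multi-cell-type spheroids of tumor cells with HUVEC and mesenchymal stem cells, treated with drug combinations. Concentrations descend in half-log steps from near clinical Cmax, or from 10 microM where Cmax is unknown; viability read-out.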
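Also: spheroids exposed to compounds for one week before readout.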
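For viability, T/C in this document: percent viability relative to vehicle DMSO wells taken as 100%.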

For Cn1ncnc1[C@H]1c2n[nH]c(=O)c3cc(F)cc(c23)N[C@@H]1c1ccc(F)cc1 + Cc1[nH]c2ccc(F)cc2c1-c1nc2c3cccnc3c3ncccc3c2[nH]1, the IC50 (second compound 0.0316 µM) was greater than 316 nM, the IC50 (second compound 0.1 µM) was greater than 316 nM and the IC50 (second compound 0.316 µM) was greater than 316 nM. For the same molecule, the IC50 (second compound 1 µM) was greater than 316 nM, the IC50 (second compound 3.16 µM) was greater than 316 nM and the IC50 (second compound 10 µM) was greater than 316 nM. It also gave a viability, T/C (second compound 0.0316 µM, first compound 0.000999 µM) of 104%, a viability, T/C (second compound 0.0316 µM, first compound 0.00316 µM) of 86% and a viability, T/C (second compound 0.0316 µM, first compound 0.00999 µM) of 103%. The viability, T/C (second compound 0.0316 µM, first compound 0.0316 µM) was 89.7%, the viability, T/C (second compound 0.0316 µM, first compound 0.0999 µM) was 106% and the viability, T/C (second compound 0.0316 µM, first compound 0.316 µM) was 109%. The viability, T/C (second compound 0.1 µM, first compound 0.000999 µM) was 95.8%, the viability, T/C (second compound 0.1 µM, first compound 0.00316 µM) was 105% and the viability, T/C (second compound 0.1 µM, first compound 0.00999 µM) was 98%. It also gave a viability, T/C (second compound 0.1 µM, first compound 0.0316 µM) of 92.7%, a viability, T/C (second compound 0.1 µM, first compound 0.0999 µM) of 102% and a viability, T/C (second compound 0.1 µM, first compound 0.316 µM) of 104%. For the same molecule, the viability, T/C (second compound 0.316 µM, first compound 0.000999 µM) was 97.3%, the viability, T/C (second compound 0.316 µM, first compound 0.00316 µM) was 112% and the viability, T/C (second compound 0.316 µM, first compound 0.00999 µM) was 97%. For the same molecule, the viability, T/C (second compound 0.316 µM, first compound 0.0316 µM) was 104%, the viability, T/C (second compound 0.316 µM, first compound 0.0999 µM) was 102% and the viability, T/C (second compound 0.316 µM, first compound 0.316 µM) was 98.6%. The viability, T/C (second compound 1 µM, first compound 0.000999 µM) was 96.1%, the viability, T/C (second compound 1 µM, first compound 0.00316 µM) was 101% and the viability, T/C (second compound 1 µM, first compound 0.00999 µM) was 97.4%. For the same molecule, the viability, T/C (second compound 1 µM, first compound 0.0316 µM) was 95.8%, the viability, T/C (second compound 1 µM, first compound 0.0999 µM) was 104% and the viability, T/C (second compound 1 µM, first compound 0.316 µM) was 94.8%. It also gave a viability, T/C (second compound 3.16 µM, first compound 0.000999 µM) of 92.2%, a viability, T/C (second compound 3.16 µM, first compound 0.00316 µM) of 101% and a viability, T/C (second compound 3.16 µM, first compound 0.00999 µM) of 91.9%. The viability, T/C (second compound 3.16 µM, first compound 0.0316 µM) was 103%, the viability, T/C (second compound 3.16 µM, first compound 0.0999 µM) was 114% and the viability, T/C (second compound 3.16 µM, first compound 0.316 µM) was 96.9%. For the same molecule, the viability, T/C (second compound 10 µM, first compound 0.000999 µM) was 102%, the viability, T/C (second compound 10 µM, first compound 0.00316 µM) was 99.3% and the viability, T/C (second compound 10 µM, first compound 0.00999 µM) was 97.1%. For the same molecule, the viability, T/C (second compound 10 µM, first compound 0.0316 µM) was 99.2%, the viability, T/C (second compound 10 µM, first compound 0.0999 µM) was 104% and the viability, T/C (second compound 10 µM, first compound 0.316 µM) was 94.6%.
